We go through 26 compounds from PubChem BioAssay (NCI).

Holding throughout (test): NCI-60 cell line screen, 48 h
Test [1] concerns OVCAR-8 ovarian.
Test [2] deals with PC-3 prostate.
Test [3] relates to HL-60(TB) leukemia.
Test [4] concerns KM12 colon.
Test [5] has as its system MDA-MB-435.
Test [6] deals with SK-OV-3 ovarian.
Test [7] deals with OVCAR-3 ovarian.
The subject of test [8] is COLO 205 colon.
For test [9], the system named is MCF7 breast.
The subject of test [10] is SNB-75 CNS.

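48-hour exposure; five concentrations; linearly interpolated endpoints. GI50 is the concentration that inhibits growth by half. TGI: total growth inhibition.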 Bounds are passed on as bounds.

With `O=C(Nc1ccccc1)c1cc(S(=O)(=O)Nc2n[nH]c(=O)[nH]2)c(SSc2cc(Cl)c(C(=O)Nc3ccccc3)cc2S(=O)(=O)Nc2n[nH]c(=O)[nH]2)cc1Cl`, the TGI in test [1], in [2], in [3], in test [4], in [5] and in test [6] was above 100 µM in each case. Further, the TGI in [7], in test [8], in [9] and in test [10] was above 100 µM in each case.

Take `N#Cc1ccc(/C=N/NC(=O)CSCC(=O)N/N=C/c2ccc(C#N)cc2)cc1`: the TGI in [1], in test [2], in test [3], in [4], in test [5] and in test [6] was above 100 µM in each case. Besides, the TGI was above 100 µM in test [7], above 100 µM in test [8], above 100 µM in test [9] and 81.9 µM in test [10].

Regarding `O=c1c2ncn(C3CCCCO3)c2n(-c2ccccc2)c(=S)n1-c1ccccc1` (stereo unspecified), the TGI is above 100 µM in [1]; above 100 µM in [2]; above 100 µM in [3]; above 100 µM in test [4]; above 100 µM in [5]; 61 µM in test [6]. For the same compound, the TGI in [7] is above 81.3 µM; in [8] it was above 100 µM; in test [9] it was above 100 µM; in test [10] it was 20.7 µM.

Regarding `CC(=O)[C@H]1CC[C@H]2[C@@H]3CCC4=CC(=O)CC[C@]4(C)[C@H]3CC[C@]12C`, the TGI in test [1] is 47.3 µM; in test [2] it was 39.3 µM; in test [3] it was 87.1 µM; in test [4], 31.5 µM; in [5] it was 39.3 µM; in test [6], 62.9 µM. Besides, the TGI in test [7] worked out at 35 µM; in test [8], 29.5 µM; in test [9] it was 50.4 µM; in [10], 65.6 µM.

In the case of `O=S(=O)(O)c1ccc2c(N=Nc3ccccc3)c(O)c(S(=O)(=O)O)cc2c1`, the TGI in test [1], in test [2], in test [3], in test [4], in test [5] and in [6] was above 100 µM each time. Further, the TGI in test [7], in test [8], in test [9] and in [10] was above 100 µM throughout.

Regarding `O=C(O)CCC(C(=O)O)N1C(=O)c2ccccc2C1=O` (stereo unspecified), the TGI in [1], in test [2], in test [3], in test [4], in test [5] and in [6] was above 100 µM each time. The TGI in [7], in [8], in [9] and in test [10] was above 100 µM in each case.

For `c1ccc2c(c1)nc1n2CCNC1`, the TGI in [1], in test [2], in test [3], in test [4], in test [5] and in test [6] was above 100 µM in each case. Moreover, the TGI in [7], in test [8], in test [9] and in [10] was above 100 µM each time.

Turning to `O=c1[nH]c2nccnc2c2c([N+](=O)[O-])cccc12`, the TGI in test [1], in test [2], in [3], in test [4], in test [5] and in test [6] was above 100 µM each time. Also, the TGI in test [7], in test [8], in [9] and in [10] was above 100 µM each time.

On to `COc1ccc(C2c3cc4c(cc3OC(NNC(N)=O)C2C)OCO4)cc1` (stereo unspecified), for which the TGI in test [1] was above 57.9 µM; in test [2], 53.8 µM; in test [3], 5.22 µM; in test [4], above 100 µM; in test [5] it was 8.2 µM; in test [6] it was above 100 µM. Further, the TGI in test [7] is 14.3 µM; in [8], 15 µM; in [9], above 100 µM; in [10], above 33.3 µM.

For `CC(=O)OC(CC(C)C)P1(=O)N(CC(C)(C)C)[C@@H]2CCCC[C@H]2N1CC(C)(C)C` (stereo partly specified), the TGI is 21.9 µM in test [1]; 13.6 µM in test [2]; 23.1 µM in test [3]; 24.1 µM in test [4]; 25.3 µM in [5]; 30.7 µM in test [6]. The TGI worked out at 23.1 µM in test [7], 18.2 µM in test [8], 17.4 µM in [9] and 20.6 µM in test [10].

For `O=C(CCCC1Cc2ccccc2C1=O)c1ccccc1` (stereo unspecified), the TGI in test [1] is above 100 µM; in [2] it was above 100 µM; in [3], 77.4 µM; in test [4], above 100 µM; in [5] it was above 100 µM; in test [6], above 100 µM. The TGI in test [7] is above 100 µM; in test [8], above 100 µM; in [9], 56.3 µM; in [10] it was above 100 µM.

For the compound `Cc1ccc(S(=O)(=O)N(CC(O)c2ccccc2)c2ccccc2F)cc1` (stereo unspecified), the TGI amounted to 36.9 µM in [1]; 32.2 µM in test [2]; 9.13 µM in [3]; 42.6 µM in test [4]; 32.9 µM in test [5]; 38.4 µM in test [6]. For the same compound, the TGI in [7] came to 25 µM; in test [8] it was 28.8 µM; in test [9], 28 µM; in test [10], 30.3 µM.

In the case of `COC(=O)c1c(O)ccc2c1c1c(n2Cc2ccc(OC)cc2)C(=O)c2ccccc2C1=O`, the TGI in test [1] came to 11.7 µM; in test [2], 21.1 µM; in [3], 12.1 µM; in test [4], 45.3 µM; in test [5], 22.3 µM; in [6], 48.1 µM. In addition, the TGI in test [7] was 43.9 µM; in test [8] it was 3.3 µM; in test [9], 26.7 µM; in [10], 85.8 µM.

As for `CC(C)=CCC/C(=C\CC/C(=C\CCc1ccoc1)C(=O)O)C(=O)O`, the TGI in test [1], in [2], in [3], in [4], in test [5] and in test [6] was above 100 µM each time. For the same compound, the TGI in test [7], in test [8], in test [9] and in test [10] was above 100 µM in each case.

On to `CC1(CCc2ccccc2)CC1(Br)Br` (stereo unspecified), for which the TGI was 50.8 µM in test [1]; above 100 µM in [2]; 41.9 µM in [3]; above 100 µM in test [4]; 60.1 µM in test [5]; above 100 µM in test [6]. Also, the TGI in test [7] was 39.9 µM; in test [8], 51.7 µM; in test [9] it was above 100 µM; in test [10], above 100 µM.

For `CSc1nc2c(c(=O)n1C)N=C(c1ccc(Cl)cc1)CC(c1ccccc1)N2` (stereo unspecified), the TGI in [1] was above 100 µM; in test [2], above 100 µM; in test [3], 62.4 µM; in test [4], 31.7 µM; in test [5] it was above 100 µM; in [6], 70.3 µM. Moreover, the TGI in [7] is above 100 µM; in test [8], 39.2 µM; in [9] it was 27.2 µM; in [10], 37.2 µM.

Turning to `COc1ccc(-c2cc(C3CC3)nc(SCC(=O)O)c2C#N)cc1`, the TGI in test [1], in test [2], in [3], in [4], in [5] and in [6] was above 100 µM throughout. Also, the TGI in test [7], in test [8], in [9] and in test [10] was above 100 µM throughout.

On to `C/C=C1/CN2[C@@H](C3=C[C@@H]4[C@@H]5N(C3=O)c3ccccc3[C@@]53CCN5C/C(=C/C)[C@@H]4C[C@H]53)C[C@@]34c5ccccc5N5C(=O)CC=C([C@H]1C[C@H]23)[C@H]54`, for which the TGI in [1] is 13.1 µM; in [2], 9.72 µM; in [3] it was 2.2 µM; in test [4] it was 17 µM; in test [5], 14.1 µM; in test [6] it was 16.8 µM. Besides, the TGI in [7] came to 15.8 µM; in test [8], 7.54 µM; in test [9], 10.7 µM; in test [10], 17.4 µM.

Take `COc1cc(C(=O)O[C@H](C(=O)NCCNC(=O)[C@@H](OC(=O)c2cc(OC)cc3c(C)cccc23)[C@]2(C)CO2)[C@]2(C)CO2)c2cccc(C)c2c1`: the GI50 in test [1] is below 0.01 µM; in [2], 0.109 µM; in [3], below 0.01 µM; in test [4] it was 0.0438 µM; in test [6], 0.827 µM; in test [7], 0.721 µM. Moreover, the GI50 in test [8] was 0.149 µM; in [9], below 0.01 µM; in [10], 0.304 µM. For the same compound, the TGI in test [1] was determined as 0.0683 µM; in test [4], 0.278 µM; in test [5], 0.696 µM; in test [6], 9.74 µM; in [7] it was 7.63 µM; in test [9] it was 0.0238 µM. The TGI in test [10] came to 1.4 µM.

As for `N#Cc1ccc(OC(=O)c2ccc(N=C(N)N)cc2)cc1`, the TGI in test [1], in test [2], in test [3], in [4], in test [5] and in [6] was above 100 µM each time. Moreover, the TGI in [7], in test [8], in test [9] and in [10] was above 100 µM throughout.

In the case of `c1ccc2c(c1)CCN(C1=NCCO1)C2`, the TGI in test [1], in [2], in test [3], in test [4], in test [5] and in [6] was above 10 µM throughout. Besides, the TGI in [7], in test [8], in [9] and in test [10] was above 10 µM throughout.

On to `O=C(O)CS(=O)c1ccc2c3c(cccc13)C(=O)c1ccccc1-2` (stereo unspecified), for which the TGI in test [1], in [2], in test [3], in test [4], in test [5] and in test [6] was above 100 µM each time. The TGI in test [7], in [8], in test [9] and in test [10] was above 100 µM throughout.

Take `O=C1c2n[nH]nc2C(=O)c2n[nH]nc21`: the TGI in test [1], in test [2], in test [3], in test [4], in [5] and in test [6] was above 100 µM in each case. The TGI in [7], in test [8], in [9] and in test [10] was above 100 µM each time.

For the compound `Fc1ccc(C2NC(=S)NC3=C2CCOc2c3ccc3ccccc23)cc1` (stereo unspecified), the TGI is above 100 µM in [1]; above 100 µM in [2]; above 100 µM in [3]; above 100 µM in [4]; 43.4 µM in [5]; above 100 µM in test [6]. Further, the TGI was above 100 µM in [7], 30.3 µM in test [8], above 100 µM in test [9] and above 100 µM in test [10].

Turning to `Cc1ccc(C2(N3CCCC3)OC(C)(C)c3cccc4cccc2c34)cc1` (stereo unspecified), the TGI in test [1] is 29.8 µM; in test [2] it was 36.2 µM; in [3], above 100 µM; in [4] it was above 100 µM; in test [5], 28 µM; in [6], 29.3 µM. In addition, the TGI in test [7] turned out to be 30.3 µM; in test [8] it was 30.3 µM; in test [9], 32.5 µM; in test [10], 26.3 µM.

As to `CC1(C)CC(=O)C2=C(C1)NC(SCC(=O)O)=C(C#N)C2c1ccc(Br)cc1` (stereo unspecified), the TGI in test [1], in test [2], in test [3], in test [4], in test [5] and in test [6] was above 100 µM throughout. Besides, the TGI in test [7], in test [8], in test [9] and in [10] was above 100 µM in each case.
